The values that follow come from patent publication US7968554B2, “Pyrazolo[3,4-d]pyrimidine derivatives” (Hoffman-La Roche Inc., priority 2007, dated 2011).

The structures appear in SMILES notation.

T1 sequence (P15056 416-766 limits assumed): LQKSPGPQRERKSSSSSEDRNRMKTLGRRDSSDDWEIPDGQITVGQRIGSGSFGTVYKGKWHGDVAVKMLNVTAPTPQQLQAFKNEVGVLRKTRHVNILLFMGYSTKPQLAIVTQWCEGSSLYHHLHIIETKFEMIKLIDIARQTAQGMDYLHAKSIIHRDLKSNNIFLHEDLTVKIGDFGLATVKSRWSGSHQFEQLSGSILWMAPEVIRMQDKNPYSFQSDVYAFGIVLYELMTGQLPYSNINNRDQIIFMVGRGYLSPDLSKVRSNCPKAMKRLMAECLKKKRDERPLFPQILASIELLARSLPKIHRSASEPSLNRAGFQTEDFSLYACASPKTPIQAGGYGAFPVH

The experiment concerns the target T1, b-Raf wild-type (Homo sapiens, UniProt P15056).
T1 construct: recombinant human b-Raf residues 416-end with N-terminal GST-tag; purchased Upstate 14-530M; host or cells: baculovirus, Sf21 insect cells
The experiment can be described thus: b-Raf wild-type HTRF assay with 6H-MEK as substrate (dose response). Conditions: kinase enzyme inhibition, 6H-MEK substrate, read-out: bRaf wild-type IC50. The class given is biochemical. The procedure:
Kinase Enzyme Inhibition Assay (IC50)
b-Raf Wild-Type HTRF Assay With 6H-MEK as Substrate (Dose Response)
The assay utilizes 6H-MEK as the substrate. Upon b-Raf WT phosphorylation, phosphorylated 6H-MEK is detected with rabbit anti-phospho-MEK1/2, Eu-labeled anti-rabbit, and APC-labeled anti-6H antibodies.
Reagents and Instruments:
• Enzyme: recombinant human b-Raf residues 416-end with N-terminal GST-tag from Upstate; (expressed by baculovirus in Sf21 insect cells), 0.26 mg/mL (3.87 μM assuming a molecular weight of 67.2 kD) Cat. #14-530M, Lot #25502AU, stored at −80° C. • Substrate: WT full-length 6H-MEK, 4.94 mg/mL (154.4 μM assuming a MW of 32 kD) stored at −15° C. • Antibodies: Rabbit (α-P-(Ser 217/221)-MEK-1/2 Ab (from Cell Signaling, Cat. #9121B, Lot 14); Eu-(α-rabbit IgG (from Wallac, Cat. #AD0083, Lot 318663, 710 ug/mL, 4.4 μM); (α-6H-SureLight-APC (from Martek, Cat. #AD0059H, Lot E012AB01, 3.03 μM). • Reader: Envision from PerkinElmer, HTRF reading mode with 412 mirror • Assay Plate: Matrix all-black polypropylene plates (Cat. #4344) • Others: Weidman 384 polypropylene plates (REMP) for compound plate. Assay Procedure: • (1) Prepare Kinase Assay Buffer (KAB): 50 mM HEPES (HyClone) pH7, 10 mM MgCl2, 1 mM DTT, 0.1 mM […], and 0.3 mg/ml BSA. • (2) Prepare 6H-MEK (150 nM) in KAB. Add 12 μL/well to the assay plate. • (3) Prepare ATP (66 μM) in KAB. • (4) Dilute compounds to 2.4 mM and any positive controls to 480 μM in DMSO. Perform 10-point 3× dilution in DMSO. Withdraw 2.5 μL/well of DMSO solution and add to 27.5 μL/well ATP solution in (3). • (5) Mix, then add 6 μL/well of solution in (4) to the assay plate for a DMSO concentration of 2.1% during MEK phosphorylation. • (6) Prepare b-Raf WT (100 μM) in KAB. • (7) Add 6 μL/well of KAB in columns 1-2 and 6 μL/well of b-Raf WT in columns 3-24. • (8) Incubate at 37° C. for 30 min. • (9) Prepare rabbit (α-P-(Ser 217/221 )-MEK-1/2 Ab (1:200 from stock) in AB1: 50 mM HEPES pH7, 0.2 mg/ml BSA, and 43 mM EDTA. • (10) To stop reaction, add 6 μL/well of solution from (9) to the assay plate and incubate at 37° C. for 30 min. • (11) Prepare Eu-(α-rabbit IgG (9 nM) and (α-6H-SureLight-APC (180 nM) in AB2: 50 mM HEPES pH7 and 0.2 mg/mL BSA. • (12) Add 6 μL/well of solution from (11) to the assay plate. • (13) For determining the spectrum cross talk factor, prepare 2 samples following steps (1) to (10). For the blank sample, add 6 μL/well of AB2. For the cross talk factor sample, add 6 μL/well of Eu-anti rabbit IgG (9 nM). • (14) Incubate at room temperature for 1.5 hours. • (15) Read HTRF signals at 615 nm and 665 nm on the Envision. Normalize HTRF signals after spectrum cross-talk correction. b-Raf V600E Mutant HTRF Assay With 6H-MEK as Substrate (Dose Response) Assay Principle: […]
(Time-resolved FRET reads energy transfer from a long-lived donor to a nearby acceptor.)
As for `Cc1noc(-c2ccc(C)c(OCc3nn(C)c4ncnc(N)c34)c2)n1` [Example 13, 4-Amino-1-1-methyl-3-[2-methyl-5-(3-methyl-[1,2,4]oxadiazol-5-yl)-phenoxymethyl]-1H-pyrazolo[3,4-d]pyrimidine], the IC50 (usually the midpoint of a concentration-inhibition curve) was more than 10 µM.
Take `Cc1ccc(NC(=O)c2cccc(Cl)c2)cc1OCc1nn(C)c2ncnc(N)c12` [Example 11, N-[3-(4-Amino-1-methyl-1H-pyrazolo[3,4-d]pyrimidin-3-ylmethoxy)-4-methyl-phenyl]-3-chloro-benzamide]: the IC50 was less than 10 µM.
The value for `Cc1nnc(-c2ccc(C)c(OCc3nn(C)c4ncnc(N)c34)c2)o1` [Example 21, 1-Methyl-3-[2-methyl-5-(5-methyl-[1,3,4]oxadiazol-2-yl)-phenoxymethyl]-1H-pyrazolo[3,4-d]pyrimidin-4-ylamine] was more than 10 µM; that for `Cc1ccc(OCc2ccc(Cl)cc2)cc1OCc1nn(C)c2ncnc(N)c12` [Example 19, 3-[5-(4-Chloro-benzyloxy)-2-methyl-phenoxymethyl]-1-methyl-1H-pyrazolo[3,4-d]pyrimidin-4-ylamine] was less than 10 µM; that for `Cc1ccc(OCc2ccccc2)cc1OCc1nn(C)c2ncnc(N)c12` [Example 15, 3-(5-Benzyloxy-2-methyl-phenoxymethyl)-1-methyl-1H-pyrazolo[3,4-d]pyrimidin-4-ylamine] was less than 10 µM.
With `Cc1ccc(C(=O)Nc2ccc(Cl)cc2)cc1OCc1nn(C)c2ncnc(N)c12` [Example 17, 3-(4-Amino-1-methyl-1H-pyrazolo[3,4-d]pyrimidin-3-ylmethoxy)-N-(4-chloro-phenyl)-4-methyl-benzamide], the IC50 is less than 10 µM.
The value for `Cc1ccc(NC(=O)c2ccc(NCCO)c(Cl)c2)cc1OCc1nn(C)c2ncnc(N)c12` [Example 9, N-[3-(4-Amino-1-methyl-1H-pyrazolo[3,4-d]pyrimidin-3-ylmethoxy)-4-methyl-phenyl]-3-chloro-4-(2-hydroxy-ethylamino)-benzamide] was less than 10 µM; that for `Cn1nc(COc2cccc(OCc3ccccc3)c2)c2c(N)ncnc21` [Example 7, 3-(3-Benzyloxy-phenoxymethyl)-1-methyl-1H-pyrazolo[3,4-d]pyrimidin-4-ylamine] was more than 10 µM.
